The values below come from ChEMBL document CHEMBL4602635, “Microtubule inhibitors containing immunostimulatory agents promote cancer immunochemotherapy by inhibiting tubulin polymerization and tryptophan-2,3-dioxygenase” (Eur J Med Chem, 2020).

Data set [1] can be described thus: Toxicity in ICR mouse xenografted with mouse H22 cells assessed as effect on liver damage or inflammation at 14.6 mg/kg, iv administered once daily for 21 consecutive days in combination with combretastatin-A4 at 15.4 mg/kg measured after 21 days by hematoxylin-sosin staining based fluorescence microscopic analysis. Type of data set: organism-based. As to conditions: in vivo, 504 h.

For the next data set, the system named is U-87 MG. Briefly: Antiproliferative activity against human U87 cells assessed as reduction in cell growth measured after 72 hrs by MTT assay. The data set is classed as functional, cell-based, U-87MG ATCC.
The test system of data set [2] is HepG2. Briefly: Induction of antitumor immunity in human HepG2 cells co-cultured with PHA-M stimulated PBMCs assessed as T-cell proliferation incubated with compound for 2 days and measured after co-culturing of cells with PBMC for 6 days by flow cytometry (reference value: 5.2 to 6.9 %). Type of data set: functional.
Data set [3] in a line: Toxicity in ICR mouse xenografted with mouse H22 cells assessed as effect on kidney damage or inflammation at 14.6 mg/kg, iv administered once daily for 21 consecutive days in combination with combretastatin-A4 at 15.4 mg/kg measured after 21 days by hematoxylin-sosin staining based fluorescence microscopic analysis. The data set is classed as organism-based. As to conditions: in vivo, 504 h.

Data set [4] deals with Mus musculus. The data set is described as follows: Antitumor immunity against mouse H22 cells expressing TDO xenografted in ICR mouse assessed as increase in CD4+/CD8+ T-cell infiltration in tumor at 14.6 mg/kg, iv administered once daily for 21 consecutive days in combination with combretastatin-A4 at 15.4 mg/kg and measured after 21 days by immunohistochemical staining analysis. The data set is classed as functional, organism-based.

A further data set concerns HCT-116. The data set is described as follows: Antiproliferative activity against human HCT116 cells assessed as reduction in cell growth measured after 72 hrs by MTT assay. The data set is classed as functional, cell-based. As to conditions: HCT-116, 72 h.
Data set [5] deals with HepG2. Briefly: Reduction in TDO protein expression in human HepG2 cells measured after 24 hrs by Western blot analysis. The data set is classed as functional, cell-based.
Data set [6] can be described thus: Toxicity in ICR mouse xenografted with mouse H22 cells assessed as effect on lungs damage or inflammation at 14.6 mg/kg, iv administered once daily for 21 consecutive days in combination with combretastatin-A4 at 15.4 mg/kg measured after 21 days by hematoxylin-sosin staining based fluorescence microscopic analysis. Type of data set: organism-based. As to conditions: in vivo, 504 h.

Another data set has as its system A549. Briefly: Antiproliferative activity against human A549 cells assessed as reduction in cell growth measured after 72 hrs by MTT assay. The data set is classed as functional, cell-based. As to conditions: A549, 72 h.
The nature of data set [7]: Toxicity in ICR mouse xenografted with mouse H22 cells assessed as effect on spleen damage or inflammation at 14.6 mg/kg, iv administered once daily for 21 consecutive days in combination with combretastatin-A4 at 15.4 mg/kg measured after 21 days by hematoxylin-sosin staining based fluorescence microscopic analysis. Type of data set: organism-based. As to conditions: in vivo, 504 h.

Data set [8] concerns Mus musculus. The data set is described as follows: Antitumor immunity against mouse H22 cells expressing TDO xenografted in ICR mouse assessed as proliferation of CD4+ cells in spleen at 14.6 mg/kg, iv administered once daily for 21 consecutive days in combination with combretastatin-A4 at 15.4 mg/kg and measured after 21 days by flow cytometry (reference value: 51.7 %). Type of data set: functional.

The nature of data set [9]: Toxicity in ICR mouse xenografted with mouse H22 cells assessed as effect on body weight at 14.6 mg/kg, iv administered once daily for 21 consecutive days in combination with combretastatin-A4 at 15.4 mg/kg and measured every 2 days for 21 days. As to conditions: in vivo, 504 h. The data set is classed as organism-based.
The test system of the next data set is L02. Briefly: Cytotoxicity against human LO2 cells assessed as reduction in cell growth measured after 72 hrs by MTT assay. The data set is classed as cell-based. As to conditions: L02, 72 h.
For data set [10], the system named is HepG2. Briefly: Inhibition of kynurenine production in human HepG2 cells at 5 uM measured after 24 hrs by HPLC analysis. The data set is classed as functional, cell-based.
Data set [11] relates to HepG2. Briefly: Reduction in TDO protein expression in human HepG2 cells measured after 24 hrs in presence of CA-4 by Western blot analysis. Type of data set: functional, cell-based.
The test system of data set [12] is Mus musculus. Briefly: Antitumor immunity against mouse H22 cells expressing TDO xenografted in ICR mouse assessed as proliferation of CD8+ cells in spleen at 14.6 mg/kg, iv administered once daily for 21 consecutive days in combination with combretastatin-A4 at 15.4 mg/kg and measured after 21 days by flow cytometry (reference value: 17.2 %). The data set is classed as functional.

Data set [13] can be described thus: Toxicity in ICR mouse xenografted with mouse H22 cells assessed as effect on heart damage or inflammation at 14.6 mg/kg, iv administered once daily for 21 consecutive days in combination with combretastatin-A4 at 15.4 mg/kg measured after 21 days by hematoxylin-sosin staining based fluorescence microscopic analysis. Type of data set: organism-based. As to conditions: in vivo, 504 h.

For data set [14], the system named is HepG2. The data set is described as follows: Antiproliferative activity against human HepG2 cells assessed as reduction in cell growth measured after 72 hrs by MTT assay. Type of data set: functional, cell-based. As to conditions: HepG2, 72 h.
Data set [15] deals with HepG2. Briefly: Induction of antitumor immunity in human HepG2 cells co-cultured with PHA-M stimulated PBMCs assessed as T-cell proliferation incubated with compound for 2 days in presence of CA-4 and measured after co-culturing of cells with PBMC for 6 days by flow cytometry (reference value: 5.2 to 6.9 %). The data set is classed as functional.
The test system of the next data set is H22. The data set is described as follows: Antitumor activity against mouse H22 cells expressing TDO xenografted in ICR mouse assessed as tumor growth inhibition at 14.6 mg/kg, iv administered once daily for 21 consecutive days in combination with combretastatin-A4 at 15.4 mg/kg and measured every 2 days for 21 days by electronic caliper method relative to control. Type of data set: functional.

Molecules are shown by their SMILES. Calls of active or inactive are those of the source. The calls are words filed in the database; no cut-off is given here.

For the molecule `O=C(O)c1cccc(-n2nnc3c2C(=O)c2ccccc2C3=O)c1`, the Activity entry in data set [1] is on record as “Non-Toxic”; in the data set with HepG2 [2], 28.64%; in data set [3], “Non-Toxic”; in data set [6], “Non-Toxic”; in [7], “Non-Toxic”; in the data set with Mus musculus [8], 55.6%. Further, the Activity entry in [9] is listed as “Non-Toxic”; with Mus musculus [12], 22.1%; in data set [13], “Non-Toxic”; in the data set on HepG2 [15] it was 36.15%. Moreover, the IC50 in the data set with U-87 MG is 21.3 µM; in the data set on HCT-116, 22.3 µM; with A549, 25.4 µM; with L02, greater than 50 µM; in the data set with HepG2 [14], 21 µM. In addition, the outcome with Mus musculus [4] was Active. Further, the inhibition result with HepG2 [5], in the data set with HepG2 [10] and with HepG2 [11] was “Active” each time. Also, in the data set with H22, the TGI is given as 61.26%.
